Test [1] has as its system Proto-oncogene tyrosine-protein kinase receptor Ret (Homo sapiens), P07949 [M918T]. The test is described as follows: Inhibition of RET M918T (unknown origin) assessed as remaining activity at 1 uM by Kinome scan method relative to control.
For test [2], the target named is Serine/threonine-protein kinase PLK2 (Homo sapiens) (UniProt Q9NYY3). The test is described as follows: Inhibition of PLK2 (unknown origin) assessed as remaining activity at 1 uM by Kinome scan method relative to control.
Test [3] addresses Ephrin type-A receptor 8 (Homo sapiens) (UniProt P29322). The test is described as follows: Inhibition of EPHA8 (unknown origin) assessed as remaining activity at 1 uM by Kinome scan method relative to control.
For test [4], the system named is Tyrosine-protein kinase ABL1 (Homo sapiens), P00519 [Q252H]. The test is described as follows: Inhibition of human ABL1 Q252H mutant assessed as residual activity at 1 uM using Poly(Ala,Glu,Lys,Tyr)6:2:5:1 as substrate in presence of 33P-ATP by ProQinase assay relative to control.
In test [5] the target is Insulin receptor (Homo sapiens) (UniProt P06213). The test is described as follows: Inhibition of human INSR assessed as residual activity at 1 uM using poly(Ala,Glu,Lys,Tyr)6:2:5:1 as substrate in presence of 33P-ATP by ProQinase assay relative to control.
The target of test [6] is Receptor-interacting serine/threonine-protein kinase 2 (Homo sapiens) (UniProt O43353). The test is described as follows: Inhibition of human RIPK2 assessed as residual activity at 1 uM using RBER-CHKtide as substrate in presence of 33P-ATP by ProQinase assay relative to control.
Test [7] has as its target T1, MAP/microtubule affinity-regulating kinase 4 (Homo sapiens) (UniProt Q96L34).
T1 sequence (whole entry): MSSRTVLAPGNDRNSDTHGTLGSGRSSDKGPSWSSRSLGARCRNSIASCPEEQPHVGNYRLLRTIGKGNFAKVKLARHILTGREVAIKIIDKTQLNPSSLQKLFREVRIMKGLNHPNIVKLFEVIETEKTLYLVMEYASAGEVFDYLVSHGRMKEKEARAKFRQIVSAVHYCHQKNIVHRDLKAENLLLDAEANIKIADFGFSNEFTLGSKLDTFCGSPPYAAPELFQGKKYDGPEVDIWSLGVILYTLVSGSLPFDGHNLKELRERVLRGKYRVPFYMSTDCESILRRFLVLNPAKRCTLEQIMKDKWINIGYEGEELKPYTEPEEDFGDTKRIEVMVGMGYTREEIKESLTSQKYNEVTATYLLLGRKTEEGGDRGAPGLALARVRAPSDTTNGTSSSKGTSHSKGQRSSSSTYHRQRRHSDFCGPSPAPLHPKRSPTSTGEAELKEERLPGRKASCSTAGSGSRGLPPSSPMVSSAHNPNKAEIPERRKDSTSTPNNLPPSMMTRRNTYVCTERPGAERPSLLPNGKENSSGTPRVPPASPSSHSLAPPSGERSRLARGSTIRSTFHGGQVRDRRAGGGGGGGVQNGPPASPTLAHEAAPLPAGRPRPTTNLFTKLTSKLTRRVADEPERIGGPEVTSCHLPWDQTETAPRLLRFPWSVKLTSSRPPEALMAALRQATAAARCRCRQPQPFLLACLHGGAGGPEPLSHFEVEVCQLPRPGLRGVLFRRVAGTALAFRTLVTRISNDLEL
The test is described as follows: Inhibition of human MARK4 assessed as residual activity at 1 uM using RBER-CHKtide as substrate in presence of 33P-ATP by ProQinase assay relative to control.

Test [8] deals with Receptor-type tyrosine-protein kinase FLT3 (Homo sapiens), P36888 [K663Q]. The test is described as follows: Inhibition of FLT3 K663Q mutant (unknown origin) assessed as remaining activity at 1 uM by Kinome scan method relative to control.
Test [9] deals with NUAK family SNF1-like kinase 1 (Homo sapiens) (UniProt O60285). The test is described as follows: Inhibition of ARK5 (unknown origin) assessed as remaining activity at 1 uM by Kinome scan method relative to control.
In test [10] the target is Protein-tyrosine kinase 2-beta (Homo sapiens) (UniProt Q14289). The test is described as follows: Inhibition of PYK2 (unknown origin) assessed as remaining activity at 1 uM by Kinome scan method relative to control.
Test [11] deals with Tyrosine-protein kinase Yes (Homo sapiens) (UniProt P07947). The test is described as follows: Inhibition of YES (unknown origin) assessed as remaining activity at 1 uM by Kinome scan method relative to control.
The target in test [12] is Mitogen-activated protein kinase kinase kinase kinase 4 (Homo sapiens) (UniProt O95819). The test is described as follows: Inhibition of human MAP4K4 assessed as residual activity at 1 uM using casein as substrate in presence of 33P-ATP by ProQinase assay relative to control.
Test [13] concerns the target Tyrosine-protein kinase Fes/Fps (Homo sapiens) (UniProt P07332). The test is described as follows: Inhibition of FES (unknown origin) assessed as remaining activity at 1 uM by Kinome scan method relative to control.
The target in test [14] is Macrophage colony-stimulating factor 1 receptor (Homo sapiens) (UniProt P07333). The test is described as follows: Inhibition of human CSF1R assessed as residual activity at 1 uM using polyEY as substrate in presence of 33P-ATP by ProQinase assay relative to control.
Test [15] deals with Hepatocyte growth factor receptor (Homo sapiens), P08581 [Y1230D]. The test is described as follows: Inhibition of human MET Y1230D mutant assessed as residual activity at 1 uM using poly(Ala,Glu,Lys,Tyr)6:2:5:1 as substrate in presence of 33P-ATP by ProQinase assay relative to control.
Test [16] concerns the target T2, Calcium/calmodulin-dependent protein kinase type IV (Homo sapiens) (UniProt Q16566).
T2 sequence (whole entry): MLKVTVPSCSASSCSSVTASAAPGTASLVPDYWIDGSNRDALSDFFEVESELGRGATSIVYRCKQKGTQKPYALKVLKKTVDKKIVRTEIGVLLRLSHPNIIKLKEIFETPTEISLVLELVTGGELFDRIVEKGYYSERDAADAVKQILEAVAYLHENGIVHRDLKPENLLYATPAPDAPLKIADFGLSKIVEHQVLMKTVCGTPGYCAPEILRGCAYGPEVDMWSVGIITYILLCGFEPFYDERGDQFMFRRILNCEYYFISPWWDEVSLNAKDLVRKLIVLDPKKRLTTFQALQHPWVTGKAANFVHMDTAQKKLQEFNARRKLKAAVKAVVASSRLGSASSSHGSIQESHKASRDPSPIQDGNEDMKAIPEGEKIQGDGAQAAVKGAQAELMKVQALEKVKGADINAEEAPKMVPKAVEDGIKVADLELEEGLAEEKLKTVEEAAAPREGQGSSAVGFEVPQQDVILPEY
The test is described as follows: Inhibition of human CAMK4 assessed as residual activity at 1 uM using JUN as substrate in presence of 33P-ATP by ProQinase assay relative to control.

The target of test [17] is Casein kinase I isoform alpha-like (Homo sapiens) (UniProt Q8N752). The test is described as follows: Inhibition of CSNK1A1L (unknown origin) assessed as remaining activity at 1 uM by Kinome scan method relative to control.
Test [18] concerns the target Serine/threonine-protein kinase 10 (Homo sapiens) (UniProt O94804). The test is described as follows: Inhibition of LOK (unknown origin) assessed as remaining activity at 1 uM by Kinome scan method relative to control.

Sequence of NUAK family SNF1-like kinase 1 (Homo sapiens) (O60285 whole entry): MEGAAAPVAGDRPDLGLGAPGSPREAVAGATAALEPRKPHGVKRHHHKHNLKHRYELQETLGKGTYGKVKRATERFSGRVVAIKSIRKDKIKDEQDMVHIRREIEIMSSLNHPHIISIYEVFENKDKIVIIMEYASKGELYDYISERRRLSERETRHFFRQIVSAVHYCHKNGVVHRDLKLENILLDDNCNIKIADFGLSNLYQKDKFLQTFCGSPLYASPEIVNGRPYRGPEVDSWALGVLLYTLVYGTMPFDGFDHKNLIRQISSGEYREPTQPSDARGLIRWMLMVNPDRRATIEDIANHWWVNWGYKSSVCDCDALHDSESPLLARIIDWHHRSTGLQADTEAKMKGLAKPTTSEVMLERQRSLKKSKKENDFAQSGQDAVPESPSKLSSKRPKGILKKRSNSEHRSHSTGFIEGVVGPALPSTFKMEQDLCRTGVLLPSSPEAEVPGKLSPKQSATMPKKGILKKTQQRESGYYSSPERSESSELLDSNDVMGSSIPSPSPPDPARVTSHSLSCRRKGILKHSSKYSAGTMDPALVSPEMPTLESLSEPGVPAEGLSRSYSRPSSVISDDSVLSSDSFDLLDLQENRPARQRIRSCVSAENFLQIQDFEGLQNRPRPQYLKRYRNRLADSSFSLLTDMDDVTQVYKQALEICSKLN
Sequence of Casein kinase I isoform alpha-like (Homo sapiens) (Q8N752 whole entry, canonical isoform): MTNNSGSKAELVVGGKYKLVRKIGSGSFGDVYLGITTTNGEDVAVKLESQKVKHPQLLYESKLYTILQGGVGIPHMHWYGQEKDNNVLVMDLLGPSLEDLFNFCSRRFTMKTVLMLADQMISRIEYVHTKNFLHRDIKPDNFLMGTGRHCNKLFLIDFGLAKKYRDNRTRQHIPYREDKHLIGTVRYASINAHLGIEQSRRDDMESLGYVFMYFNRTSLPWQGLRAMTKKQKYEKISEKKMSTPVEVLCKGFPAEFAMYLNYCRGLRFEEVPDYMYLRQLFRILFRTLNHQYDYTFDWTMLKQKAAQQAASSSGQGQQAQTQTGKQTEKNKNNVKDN
Sequence of Serine/threonine-protein kinase PLK2 (Homo sapiens) (Q9NYY3 whole entry, looked up): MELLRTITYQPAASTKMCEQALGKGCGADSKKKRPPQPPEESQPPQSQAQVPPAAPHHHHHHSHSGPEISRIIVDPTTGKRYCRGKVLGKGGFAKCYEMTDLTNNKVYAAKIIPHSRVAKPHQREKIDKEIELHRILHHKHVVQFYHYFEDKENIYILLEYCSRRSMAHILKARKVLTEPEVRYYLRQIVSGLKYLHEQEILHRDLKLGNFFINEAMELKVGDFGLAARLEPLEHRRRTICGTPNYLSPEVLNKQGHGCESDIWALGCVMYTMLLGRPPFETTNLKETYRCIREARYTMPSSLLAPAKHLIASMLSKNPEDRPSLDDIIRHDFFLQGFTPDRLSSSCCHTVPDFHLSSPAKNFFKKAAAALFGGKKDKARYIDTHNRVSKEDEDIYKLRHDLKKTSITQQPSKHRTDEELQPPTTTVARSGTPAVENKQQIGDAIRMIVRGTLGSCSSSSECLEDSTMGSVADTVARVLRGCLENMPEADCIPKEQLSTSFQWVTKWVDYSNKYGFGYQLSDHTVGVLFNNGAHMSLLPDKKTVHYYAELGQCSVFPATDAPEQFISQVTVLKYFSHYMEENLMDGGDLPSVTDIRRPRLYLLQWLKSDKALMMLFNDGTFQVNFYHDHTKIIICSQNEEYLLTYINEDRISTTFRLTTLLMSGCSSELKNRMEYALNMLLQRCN
Sequence of Mitogen-activated protein kinase kinase kinase kinase 4 (Homo sapiens) (O95819 2-1239 limits assumed): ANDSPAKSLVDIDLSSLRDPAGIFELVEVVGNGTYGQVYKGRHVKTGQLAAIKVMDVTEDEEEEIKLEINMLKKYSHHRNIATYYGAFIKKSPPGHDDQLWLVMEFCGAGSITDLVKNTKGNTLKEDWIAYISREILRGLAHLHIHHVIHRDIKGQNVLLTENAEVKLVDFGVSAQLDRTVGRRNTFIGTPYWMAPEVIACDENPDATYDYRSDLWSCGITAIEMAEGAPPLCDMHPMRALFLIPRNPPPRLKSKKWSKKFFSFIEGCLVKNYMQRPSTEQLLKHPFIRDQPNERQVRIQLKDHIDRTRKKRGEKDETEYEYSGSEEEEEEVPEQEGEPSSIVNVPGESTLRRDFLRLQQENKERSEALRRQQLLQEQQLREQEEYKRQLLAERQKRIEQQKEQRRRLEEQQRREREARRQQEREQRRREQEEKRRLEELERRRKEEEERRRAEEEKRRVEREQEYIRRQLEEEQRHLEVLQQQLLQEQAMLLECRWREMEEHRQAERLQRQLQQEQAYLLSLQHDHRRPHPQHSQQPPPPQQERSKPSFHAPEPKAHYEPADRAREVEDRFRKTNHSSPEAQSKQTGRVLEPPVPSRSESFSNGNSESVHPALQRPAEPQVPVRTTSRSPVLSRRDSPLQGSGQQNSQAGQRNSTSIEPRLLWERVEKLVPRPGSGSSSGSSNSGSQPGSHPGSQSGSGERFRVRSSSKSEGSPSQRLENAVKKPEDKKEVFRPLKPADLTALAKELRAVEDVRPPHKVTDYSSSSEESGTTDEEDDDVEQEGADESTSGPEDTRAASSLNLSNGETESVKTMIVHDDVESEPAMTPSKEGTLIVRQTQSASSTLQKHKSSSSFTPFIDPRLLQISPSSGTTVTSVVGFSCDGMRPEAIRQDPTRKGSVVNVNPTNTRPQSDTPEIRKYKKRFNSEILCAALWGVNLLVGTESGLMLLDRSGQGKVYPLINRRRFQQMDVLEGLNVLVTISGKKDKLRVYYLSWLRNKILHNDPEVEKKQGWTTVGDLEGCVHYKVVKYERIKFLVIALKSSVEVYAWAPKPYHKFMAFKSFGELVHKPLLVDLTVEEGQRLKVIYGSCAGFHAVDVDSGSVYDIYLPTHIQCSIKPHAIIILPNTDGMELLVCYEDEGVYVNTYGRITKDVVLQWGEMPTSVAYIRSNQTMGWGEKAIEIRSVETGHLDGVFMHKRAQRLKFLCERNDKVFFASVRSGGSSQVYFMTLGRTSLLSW
Sequence of Macrophage colony-stimulating factor 1 receptor (Homo sapiens) (P07333 whole entry): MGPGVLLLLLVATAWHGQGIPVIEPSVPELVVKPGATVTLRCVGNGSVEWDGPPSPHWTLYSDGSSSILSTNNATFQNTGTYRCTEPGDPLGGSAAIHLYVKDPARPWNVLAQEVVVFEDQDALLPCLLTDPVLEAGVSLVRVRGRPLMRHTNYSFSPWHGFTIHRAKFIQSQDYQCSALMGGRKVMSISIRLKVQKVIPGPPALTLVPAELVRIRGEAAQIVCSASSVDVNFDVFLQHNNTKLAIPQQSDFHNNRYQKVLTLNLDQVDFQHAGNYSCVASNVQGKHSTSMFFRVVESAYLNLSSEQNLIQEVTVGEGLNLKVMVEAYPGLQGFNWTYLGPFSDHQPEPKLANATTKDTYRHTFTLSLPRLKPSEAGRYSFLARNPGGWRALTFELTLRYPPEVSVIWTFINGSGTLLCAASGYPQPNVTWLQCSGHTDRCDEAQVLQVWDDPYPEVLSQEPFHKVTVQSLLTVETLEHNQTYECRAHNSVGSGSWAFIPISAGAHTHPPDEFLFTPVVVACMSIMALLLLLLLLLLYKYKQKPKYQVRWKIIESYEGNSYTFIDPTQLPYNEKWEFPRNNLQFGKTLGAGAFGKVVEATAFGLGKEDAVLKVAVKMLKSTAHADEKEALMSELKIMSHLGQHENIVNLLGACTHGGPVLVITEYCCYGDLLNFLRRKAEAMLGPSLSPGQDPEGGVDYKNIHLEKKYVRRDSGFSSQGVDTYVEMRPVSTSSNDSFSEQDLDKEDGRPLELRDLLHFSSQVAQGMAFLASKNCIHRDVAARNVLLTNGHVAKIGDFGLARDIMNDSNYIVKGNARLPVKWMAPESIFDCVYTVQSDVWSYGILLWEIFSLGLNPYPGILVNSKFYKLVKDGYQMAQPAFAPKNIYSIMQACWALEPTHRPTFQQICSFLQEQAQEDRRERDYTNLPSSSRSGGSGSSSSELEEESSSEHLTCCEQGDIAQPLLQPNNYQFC
Sequence of Tyrosine-protein kinase Fes/Fps (Homo sapiens) (P07332 whole entry): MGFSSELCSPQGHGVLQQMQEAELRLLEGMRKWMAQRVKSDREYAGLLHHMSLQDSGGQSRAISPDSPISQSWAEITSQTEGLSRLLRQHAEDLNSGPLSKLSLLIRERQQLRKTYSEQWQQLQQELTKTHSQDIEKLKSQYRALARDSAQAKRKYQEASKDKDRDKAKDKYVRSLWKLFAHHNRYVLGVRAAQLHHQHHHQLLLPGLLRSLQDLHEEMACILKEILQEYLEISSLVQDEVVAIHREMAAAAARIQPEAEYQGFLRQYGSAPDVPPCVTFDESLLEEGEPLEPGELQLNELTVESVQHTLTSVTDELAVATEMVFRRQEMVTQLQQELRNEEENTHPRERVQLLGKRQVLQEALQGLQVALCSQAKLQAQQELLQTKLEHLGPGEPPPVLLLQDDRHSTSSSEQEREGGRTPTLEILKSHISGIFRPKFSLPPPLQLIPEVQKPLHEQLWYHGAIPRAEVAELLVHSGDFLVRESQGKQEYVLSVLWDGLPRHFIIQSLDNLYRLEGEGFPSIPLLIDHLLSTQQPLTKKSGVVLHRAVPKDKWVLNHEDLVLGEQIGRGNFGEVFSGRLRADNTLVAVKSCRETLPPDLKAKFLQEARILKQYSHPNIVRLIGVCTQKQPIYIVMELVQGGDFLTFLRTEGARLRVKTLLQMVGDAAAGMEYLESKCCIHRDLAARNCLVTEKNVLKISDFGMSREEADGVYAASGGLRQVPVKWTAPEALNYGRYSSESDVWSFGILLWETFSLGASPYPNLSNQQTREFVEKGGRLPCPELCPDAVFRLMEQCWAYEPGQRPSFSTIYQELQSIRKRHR

Take `O=C1c2ccc(Nc3ccc(F)cc3F)cc2CCc2ccc(OC[C@H](O)CO)cc21` [Skepinone-L]: the Activity in test [1] stood at 100%; in test [2] it was 100%; in test [3] it was 90%; in test [4], 95%; in test [5], 101%; in [6], 77%. Also, the Activity stood at 96% in test [7]; 98% in test [8]; 100% in [9]; 100% in test [10]; 97% in test [11]; 79% in [12]. The Activity in [13] was determined as 100%; in [14], 106%; in [15], 95%; in [16] it was 111%; in [17] it was 98%; in test [18], 96%.

(Values after ChEMBL document CHEMBL5696441 (Nat Chem Biol, 2011).)
